Measurements: patent US8586579B2, “Anellated pyridine compounds” (Hoffmann-La Roche Inc., priority 2010, dated 2013)
Like-named read-outs stand apart in the source and are kept apart here.

Columns and labels:
human D2 receptor = human D2 receptor (Homo sapiens (Human), UniProt P14416); assay: Radioligand binding assay, [3H]-spiperone, human D2 receptor; details: membranes of HEK293 EBNA cells expressing human D2; 0.7 nM [3H]-spiperone
Method in brief: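 Membranes from HEK293 EBNA cells transiently expressing human D2 were incubated 1 h at RT with ~0.7 nM [3H]-spiperone and ten compound concentrations (10 μM–0.1 nM) in Tris buffer with NaCl, MgCl2, KCl, CaCl2, EDTA, pH 7.4.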

human D3 receptor = human D3 receptor (Homo sapiens (Human), UniProt P35462); assay: Radioligand binding assay, [3H]-spiperone, human D3 receptor; details: membranes of HEK293 EBNA cells expressing human D3; 0.5 nM [3H]-spiperone
Method in brief: (§1)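 Membranes from transiently transfected HEK293 EBNA cells were incubated 1 h at RT with ten compound concentrations (10 μM-0.1 nM) and radioligand: 0.5 nM [3H]-spiperone for D3 (Tris/NaCl/Mg/Ca buffer, pH 7.4) or 1.1 nM [3H]-ketanserin for 5-HT2A (Tris/MgCl2/EGTA, pH 7.4).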

human 5-HT2A receptor = human 5-HT2A receptor (Homo sapiens (Human), UniProt P28223); assay: Radioligand binding assay, [3H]-ketanserin, human 5-HT2A receptor
Method in brief: as §1

[1] = membranes of HEK293 EBNA cells expressing human 5-HT2A, 1.1 nM [3H]-ketanserin

human D3 receptor, sequence (P35462 whole entry): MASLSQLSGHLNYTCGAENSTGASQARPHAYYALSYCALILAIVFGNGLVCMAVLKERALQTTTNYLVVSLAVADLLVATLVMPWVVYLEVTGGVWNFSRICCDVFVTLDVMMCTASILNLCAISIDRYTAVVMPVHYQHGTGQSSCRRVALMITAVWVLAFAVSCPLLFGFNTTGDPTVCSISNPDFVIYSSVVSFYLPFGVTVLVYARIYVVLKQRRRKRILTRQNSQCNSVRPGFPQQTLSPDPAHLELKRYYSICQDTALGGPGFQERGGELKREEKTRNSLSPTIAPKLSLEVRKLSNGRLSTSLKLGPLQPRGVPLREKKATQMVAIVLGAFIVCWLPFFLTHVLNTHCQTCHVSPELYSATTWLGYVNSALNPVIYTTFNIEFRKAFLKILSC
human 5-HT2A receptor, sequence (P28223 whole entry): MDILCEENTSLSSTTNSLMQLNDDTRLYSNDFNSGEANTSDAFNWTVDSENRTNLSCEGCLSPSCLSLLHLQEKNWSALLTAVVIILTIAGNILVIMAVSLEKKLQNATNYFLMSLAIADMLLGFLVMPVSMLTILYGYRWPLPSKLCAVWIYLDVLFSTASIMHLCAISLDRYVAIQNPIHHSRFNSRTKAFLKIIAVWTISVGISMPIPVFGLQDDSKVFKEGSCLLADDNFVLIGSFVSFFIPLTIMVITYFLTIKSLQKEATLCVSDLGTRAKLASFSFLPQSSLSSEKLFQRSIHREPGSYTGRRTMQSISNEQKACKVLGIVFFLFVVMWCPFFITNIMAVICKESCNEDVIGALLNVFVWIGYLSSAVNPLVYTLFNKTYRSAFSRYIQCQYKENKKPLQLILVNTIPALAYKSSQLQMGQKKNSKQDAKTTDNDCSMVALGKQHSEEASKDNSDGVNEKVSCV
human D2 receptor, sequence (P14416 whole entry): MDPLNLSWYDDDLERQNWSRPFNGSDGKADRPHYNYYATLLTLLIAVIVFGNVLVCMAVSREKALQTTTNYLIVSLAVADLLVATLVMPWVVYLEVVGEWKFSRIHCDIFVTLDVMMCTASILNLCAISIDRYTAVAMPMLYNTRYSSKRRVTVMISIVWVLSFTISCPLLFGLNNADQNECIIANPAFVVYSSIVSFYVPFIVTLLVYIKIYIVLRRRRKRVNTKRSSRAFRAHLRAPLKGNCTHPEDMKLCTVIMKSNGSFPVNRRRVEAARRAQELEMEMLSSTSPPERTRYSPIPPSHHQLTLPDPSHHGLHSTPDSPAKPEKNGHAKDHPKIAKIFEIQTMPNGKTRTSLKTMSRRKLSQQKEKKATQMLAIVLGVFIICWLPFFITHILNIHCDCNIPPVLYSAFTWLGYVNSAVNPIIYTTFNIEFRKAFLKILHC

| SMILES | Ki (human D2 receptor) [nM] | Ki (human D3 receptor) [nM] | Ki (human 5-HT2A receptor; [1]) [nM] | melting point [°C] | Ki (human 5-HT2A receptor) [nM] |
| --- | --- | --- | --- | --- | --- |
| O=C(N[C@H]1CC[C@H](CCN2CCN(c3nccc4c3CCO4)CC2)CC1)c1ccc2c(c1)OCO2 [Example 121, Benzo[1,3]dioxole-5-carboxylic acid trans-(4-{2-[4-(2,3-dihydro-furo[3,2-c]pyridin-4-yl)-piperazin-1-yl]-ethyl}-cyclohexyl)-amide] | 3370 | 21.8 | 17.6 | 243.5 | – |
| O=C(Cc1ccc2c(c1)OCO2)N[C@H]1CC[C@H](CCN2CCN(c3nccc4c3CCO4)CC2)CC1 [Example 122, trans-2-Benzo[1,3]dioxol-5-yl-N-(4-{2-[4-(2,3-dihydro-furo[3,2-c]pyridin-4-yl)-piperazin-1-yl]-ethyl}-cyclohexyl)-acetamide] | 3040 | 18.6 | 33.7 | 212 | – |
| O=C(N[C@H]1CC[C@H](CCN2CCN(c3nccc4c3CCO4)CC2)CC1)C1(O)CCC1 [Example 123, 1-Hydroxy-cyclobutanecarboxylic acid trans-(4-{2-[4-(2,3-dihydro-furo[3,2-c]pyridin-4-yl)-piperazin-1-yl]-ethyl}-cyclohexyl)-amide] | 959 | 131 | 9.8 | 177.5 | – |
| O=C(N[C@H]1CC[C@H](CCN2CCN(c3nccc4c3CCO4)CC2)CC1)c1ccc(N2CCS(=O)(=O)CC2)cc1 [Example 125, trans-N-(4-{2-[4-(2,3-Dihydro-furo[3,2-c]pyridin-4-yl)-piperazin-1-yl]-ethyl}-cyclohexyl)-4-(1,1-dioxo-1λ6-thiomorpholin-4-yl)-benzamide] | 117 | 14.4 | 16.6 | 261.5 | – |
| O=C(N[C@H]1CC[C@H](CCN2CCN(c3nccc4c3CCO4)CC2)CC1)c1ccc(-n2cccn2)cc1 [Example 126, trans-N-(4-{2-[4-(2,3-Dihydro-furo[3,2-c]pyridin-4-yl)-piperazin-1-yl]-ethyl}-cyclohexyl)-4-pyrazol-1-yl-benzamide] | 478 | 44.3 | 35.9 | 229 | – |
| Cc1nc(-c2cccc(C(=O)N[C@H]3CC[C@H](CCN4CCN(c5nccc6c5CCO6)CC4)CC3)c2)no1 [Example 127, trans-N-(4-{2-[4-(2,3-Dihydro-furo[3,2-c]pyridin-4-yl)-piperazin-1-yl]-ethyl}-cyclohexyl)-3-(5-methyl-[1,2,4]oxadiazol-3-yl)-benzamide] | 2150 | 19.5 | 48.9 | 218 | – |
| O=C(N[C@H]1CC[C@H](CCN2CCN(c3nccc4c3CCO4)CC2)CC1)c1ccc2ncccc2c1 [Example 128, Quinoline-6-carboxylic acid trans-(4-{2-[4-(2,3-dihydro-furo[3,2-c]pyridin-4-yl)-piperazin-1-yl]-ethyl}-cyclohexyl)-amide] | 501 | 20.5 | 23.2 | 227 | – |
| O=C(Cc1noc2ccccc12)N[C@H]1CC[C@H](CCN2CCN(c3nccc4c3CCO4)CC2)CC1 [Example 129, trans-2-Benzo[d] isoxazol-3-yl-N-(4-{2-[4-(2,3-dihydro-furo[3,2-c]pyridin-4-yl)-piperazin-1-yl]-ethyl}-cyclohexyl)-acetamide] | 1310 | 14.9 | – | 217.5 | 27.8 |
| O=C(N[C@H]1CC[C@H](CCN2CCN(c3nccc4c3CCO4)CC2)CC1)c1cnc(N2CCOCC2)cn1 [Example 130, 5-Morpholin-4-yl-pyrazine-2-carboxylic acid trans-(4-{2-[4-(2,3-dihydro-furo[3,2-c]pyridin-4-yl)-piperazin-1-yl]-ethyl}-cyclohexyl)-amide] | 506 | 119 | 18.4 | 192.5 | – |
| CC(C)(C)c1ccc(C(=O)N[C@H]2CC[C@H](CCN3CCN(c4nccc5c4CCO5)CC3)CC2)cc1 [Example 131, trans-4-tert-Butyl-N-(4-{2-[4-(2,3-dihydro-furo[3,2-c]pyridin-4-yl)-piperazin-1-yl]-ethyl}-cyclohexyl)-benzamide] | 1660 | 147 | – | 186.5 | 66.7 |
| O=C(N[C@H]1CC[C@H](CCN2CCN(c3nccc4c3CCO4)CC2)CC1)c1ccc(-n2cccc2)cc1 [Example 133, trans-N-(4-{2-[4-(2,3-Dihydro-furo[3,2-c]pyridin-4-yl)-piperazin-1-yl]-ethyl}-cyclohexyl)-4-pyrrol-1-yl-benzamide] | 163 | 24.4 | 24.2 | 234 | – |
| O=C(N[C@H]1CC[C@H](CCN2CCN(c3nccc4c3CCO4)CC2)CC1)c1ccc(-c2ccccc2)cc1 [Example 134, Biphenyl-4-carboxylic acid trans-(4-{2-[4-(2,3-dihydro-furo[3,2-c]pyridin-4-yl)-piperazin-1-yl]-ethyl}-cyclohexyl)-amide] | 1130 | 18.6 | 23.4 | 232 | – |
| CO[C@H](C)C(=O)N[C@H]1CC[C@H](CCN2CCN(c3nccc4c3CCO4)CC2)CC1 [Example 135, trans-(R)—N-(4-{2-[4-(2,3-Dihydro-furo[3,2-c]pyridin-4-yl)-piperazin-1-yl]-ethyl}-cyclohexyl)-2-methoxy-propionamide] | 680 | 109 | 7 | 159 | – |
| CC(C)(C)Oc1ccc(C(=O)N[C@H]2CC[C@H](CCN3CCN(c4nccc5c4CCO5)CC3)CC2)cc1 [Example 136, trans-4-tert-Butoxy-N-(4-{2-[4-(2,3-dihydro-furo[3,2-c]pyridin-4-yl)-piperazin-1-yl]-ethyl}-cyclohexyl)-benzamide] | 3160 | 69.5 | 41.4 | 200 | – |
| CO[C@@H](C)C(=O)N[C@H]1CC[C@H](CCN2CCN(c3nccc4c3CCO4)CC2)CC1 [Example 137, trans-(S)—N-(4-{2-[4-(2,3-Dihydro-furo[3,2-c]pyridin-4-yl)-piperazin-1-yl]-ethyl}-cyclohexyl)-2-methoxy-propionamide] | 788 | 252 | 20.1 | 158.5 | – |
| O=S(=O)(N[C@H]1CC[C@H](CCN2CCN(c3nccc4c3CCO4)CC2)CC1)c1ccccc1 [Example 138, trans-N-(4-{2-[4-(2,3-Dihydro-furo[3,2-c]pyridin-4-yl)-piperazin-1-yl]-ethyl}-cyclohexyl)-benzenesulfonamide] | 243 | 15.5 | 70.5 | 168.5 | – |
| COC(C)CC(=O)N[C@H]1CC[C@H](CCN2CCN(c3nccc4c3CCO4)CC2)CC1 (stereo partly drawn) [Example 139, trans-N-(4-{2-[4-(2,3-Dihydro-furo[3,2-c]pyridin-4-yl)-piperazin-1-yl]-ethyl}-cyclohexyl)-3-methoxy-butyramide] | 801 | 40.6 | – | 167 | 30.4 |
| CC[C@@H](O)CC(=O)N[C@H]1CC[C@H](CCN2CCN(c3nccc4c3CCO4)CC2)CC1 [Example 140, (R)-3-Hydroxy-pentanoic acid trans-(4-{2-[4-(2,3-dihydro-furo[3,2-c]pyridin-4-yl)-piperazin-1-yl]-ethyl}-cyclohexyl)-amide] | 843 | 44.4 | – | 161 | 42 |
| O=C(CC1(O)CCC1)N[C@H]1CC[C@H](CCN2CCN(c3nccc4c3CCO4)CC2)CC1 [Example 141, trans-N-(4-{2-[4-(2,3-Dihydro-furo[3,2-c]pyridin-4-yl)-piperazin-1-yl]-ethyl}-cyclohexyl)-2-(1-hydroxy-cyclobutyl)-acetamide] | 409 | 25.8 | – | 155 | 22.5 |
